Reference: patent US9565840B2, “Fibrotic non-human animal, and use thereof” (KYOTO UNIVERSITY, priority 2012, dated 2017)
Residues, ends and D or L forms follow the SMILES beside them. *: point of attachment. Cbz = O=C(OCc1ccccc1)*

Test system: IKKβ
Assay: IKKβ level in fibroblasts from the skin of scleroderma patients, MG132 pre-treatment before IL-1β stimulation
Type: cell-based, human
Conditions: fibroblast from the skin of scleroderma patients; 2 μM MG132 for 2 hr before IL-1β (2.5 ng/mL, 60 min) stimulation; FIG. 11-3
Method: The skin of scleroderma patients (n=5) and healthy individual (n=5) was collected by biopsy, and fibroblast was prepared. The fibroblast was cultured in DMEM medium added with L-glutamine, penicillin/streptomycin and 10% FCS at 37° C., 5% CO2 concentration. After culture, nuclear protein was extracted from the fibroblast by using NE-PER nuclear protein cytoplasmic protein separation extraction kit (Thermo Scientific), and the p65 protein levels of the whole-cell lysate and nuclear extract were compared. RNA was isolated from the fibroblast by using RNA aqueous (trade mark) kit (Applied Biosytems (trade mark)), and the p65 mRNA level was compared using TaqMan (registered trade mark) Gene Expression Assays kit (Applied Biosytems (trade mark)). The NFκB activity of the fibroblast was measured by NFκB p65 Transcription Assay Kit (Thermo Scientific) and compared. […] Further, fibroblasts from the skin of scleroderma patients were stimulated for 60 min with IL-1β (2.5 ng/mL), and IKKβ and nuclear p65 protein amounts were compared. […] In addition, fibroblast from the skin of scleroderma patients was treated with 2 μM MG132 for 2 hr before the aforementioned IL-β stimulation, and the IKKβ level was measured.

CC(C)C[C@@H](C=O)NC(=O)[C@H](CC(C)C)NC(=O)[C@H](CC(C)C)NC(=O)OCc1ccccc1 [MG132] (Cbz-Leu-Leu-Leu-aldehyde)
IKKβ level: recovered the IKKβ level
